# In patent US8927717B1, “Thiochromeno[2,3-c]quinolin-12-one derivatives, preparation method and application thereof” (National Defense Medical Center, priority 2014, dated 2015):
# Key:
# Format in all cases: cell-based
# U251 = settings: U251, five dose
# 786-0 = system: 786-0
# NCI-H226 = system: NCI-H226
# HL-60(TB) = settings: Leukemia; 10^−5 molar; 48 hours; SRB
# HT29 = system: HT29
# T-47D = system: T-47D
# RXF 393 = settings: Renal cancer; 10^−5 molar; 48 hours; SRB
# ACHN = system: ACHN
# MDA-MB-486 = system: MDA-MB-486
# RPMI-8226 = system: RPMI-8226
# MOLT-4 = system: MOLT-4
# CCRF-CEM = system: CCRF-CEM
# SR = system: SR
# NCI-H23 = system: NCI-H23
# PC-3 = system: PC-3
# BT-549 = system: BT-549
# K-562 = system: K-562
# SNB-75 = system: SNB-75
# SF-295 = system: SF-295
# DU-145 = system: DU-145
# LOX IMVI = settings: LOX IMVI, five dose
# KM12 = assay: cells
# OVCAR-8 = system: OVCAR-8
# A549/ATCC = system: A549/ATCC
# MDA-MB-231/ATCC = system: MDA-MB-231/ATCC
# HS 578T = system: HS 578T
# UO-31 = system: UO-31
# NCI-H522 = system: NCI-H522
# MCF7 = system: MCF7
# SK-MEL-5 = system: SK-MEL-5
# SK-OV-3 = system: SK-OV-3
# HCT-15 = system: HCT-15
# HCT-116 = system: HCT-116
# SW-620 = system: SW-620
# HOP-62 = system: HOP-62
# NCI-H460 = system: NCI-H460
# COLO 205 = system: COLO 205
# SN12C = system: SN12C
# 60 cancer cell lines = assay: NCI 60-cell screen, SRB, whole panel (mean, delta, range)
# [1] = Renal cancer, 10^−5 molar, 48 hours, SRB
# [2] = Non-small cell lung cancer, 10^−5 molar, 48 hours, SRB
# [3] = Colon cancer, 10^−5 molar, 48 hours, SRB
# [4] = Homo sapiens, HT-29, HT29, five dose
# [5] = Breast cancer, 10^−5 molar, 48 hours, SRB
# [6] = Leukemia, 10^−5 molar, 48 hours, SRB
# [7] = Homo sapiens, NCI-H23, five dose
# [8] = Prostate cancer, 10^−5 molar, 48 hours, SRB
# [9] = CNS cancer, 10^−5 molar, 48 hours, SRB
# [10] = Homo sapiens, SNB-75, five dose
# [11] = Ovarian cancer, 10^−5 molar, 48 hours, SRB
# [12] = Homo sapiens, A549/ATCC, five dose
# [13] = Homo sapiens, NCI-H522, five dose
# [14] = Homo sapiens, SK-MEL-5, five dose
# [15] = Homo sapiens, HCT-15, five dose
# [16] = Homo sapiens, HCT-116, five dose
# [17] = Homo sapiens, SW-620, five dose
# [18] = Homo sapiens, NCI-H460, five dose
compound,measurement,setting,value
"NCCNc1nc2ccccc2c2c(=O)c3cc(Cl)ccc3sc12 [Compound N14, 6-((2-Aminoethyl)amino)-10-chloro-12H-thiochromeno[2,3-c]quinolin-12-one]",GI50,"U251; Homo sapiens, U-251",1630 nM
same,LC50,"U251; Homo sapiens, U-251",5.78 µM
same,TGI,U251,3.07 µM
same,TGI,"786-0; 786-0, five dose",3.20 µM
same,GI50,"786-0; Homo sapiens, 786-0, five dose",1760 nM
same,CC50,"786-0; Homo sapiens, 786-0, five dose, read-out: LC50 (the source's name)",5.81 µM
same,Growth percent 786-0,786-0; [1],−57.40%
same,GI50,"NCI-H226; Homo sapiens, NCI-H226, five dose",1360 nM
same,TGI,"NCI-H226; NCI-H226, five dose",2.95 µM
same,Growth percent NCI-H226,NCI-H226; [2],28.55%
same,Growth percent HL-60(TB),HL-60(TB),−47.50%
same,Growth percent HT29,HT29; [3],−83.30%
same,TGI,"HT29; HT29, five dose",3.29 µM
same,GI50,HT29; [4],1780 nM
same,LC50 (concentration killing 50% of cells),HT29; [4],6.09 µM
same,Growth percent T-47D,T-47D; [5],−82.45%
same,GI50,"T-47D; Homo sapiens, T47D, T-47D, five dose",1560 nM
same,TGI,"T-47D; T-47D, five dose",3.37 µM
same,Growth percent RXF 393,RXF 393,−87.22%
same,TGI,"ACHN; ACHN, five dose",2.76 µM
same,GI50,"ACHN; Homo sapiens, ACHN, five dose",1440 nM
same,CC50,"ACHN; Homo sapiens, ACHN, five dose, read-out: LC50 (the source's name)",5.29 µM
same,Growth percent ACHN,ACHN; [1],−92.31%
same,GI50,"MDA-MB-486; 60 cell, MDA-MB-486, five dose",1270 nM
same,CC50,"MDA-MB-486; 60 cell, MDA-MB-486, five dose, read-out: LC50 (the source's name)",6.15 µM
same,Growth percent MDA-MB-486,MDA-MB-486; [5],−62.13%
same,TGI,"MDA-MB-486; MDA-MB-486, five dose",2.80 µM
same,GI50,"RPMI-8226; Homo sapiens, RPMI-8226, five dose",2260 nM
same,CC50,"RPMI-8226; Homo sapiens, RPMI-8226, five dose, read-out: LC50 (the source's name)",62.3 µM
same,Growth percent RPMI-8226,RPMI-8226; [6],−27.48%
same,TGI,"RPMI-8226; RPMI-8226, five dose",4.92 µM
same,GI50,"MOLT-4; Homo sapiens, MOLT-4, five dose",2020 nM
same,CC50,"MOLT-4; Homo sapiens, MOLT-4, five dose, read-out: LC50 (the source's name)",7.77 µM
same,Growth percent MOLT-4,MOLT-4; [6],−58.82%
same,TGI,"MOLT-4; MOLT-4, five dose",3.96 µM
same,TGI,"CCRF-CEM; CCRF-CEM, five dose",3.65 µM
same,GI50,"CCRF-CEM; Homo sapiens, CCRF-CEM, five dose",1750 nM
same,CC50,"CCRF-CEM; Homo sapiens, CCRF-CEM, five dose, read-out: LC50 (the source's name)",7.64 µM
same,Growth percent CCRF-CEM,CCRF-CEM; [6],−39.61%
same,GI50,"SR; Homo sapiens, SR, five dose",1810 nM
same,LC50 (50% lethal concentration),"SR; Homo sapiens, SR, five dose",> 100 µM
same,Growth percent SR,SR; [6],−51.67%
same,TGI,"SR; SR, five dose",4.30 µM
same,GI50,NCI-H23; [7],1720 nM
same,LC50 (lethal concentration 50%),NCI-H23; [7],6.63 µM
same,TGI,"NCI-H23; NCI-H23, five dose",3.37 µM
same,Growth percent NCI-H23,NCI-H23; [2],−5.25%
same,GI50,"PC-3; Homo sapiens, PC-3, five dose",1550 nM
same,CC50,"PC-3; Homo sapiens, PC-3, five dose, read-out: LC50 (the source's name)",5.76 µM
same,TGI,"PC-3; PC-3, five dose",2.99 µM
same,Growth percent PC-3,PC-3; [8],−97.71%
same,TGI,"BT-549; BT-549, five dose",5.35 µM
same,Growth percent BT-549,BT-549; [5],78.49%
same,GI50,"BT-549; Homo sapiens, BT-549, five dose",2150 nM
same,CC50,"BT-549; Homo sapiens, BT-549, five dose, read-out: LC50 (the source's name)",62 µM
same,GI50,"K-562; Homo sapiens, K562, K-562, five dose",1690 nM
same,CC50,"K-562; Homo sapiens, K562, K-562, five dose, read-out: LC50 (the source's name)",7.84 µM
same,TGI,"K-562; K-562, five dose",3.65 µM
same,Growth percent K-562,K-562; [6],−57.17%
same,Growth percent SNB-75,SNB-75; [9],−43.13%
same,GI50,SNB-75; [10],1090 nM
same,LC50,SNB-75; [10],4.9 µM
same,TGI,"SNB-75; SNB-75, five dose",2.31 µM
same,Growth percent SF-295,SF-295; [9],−74.29%
same,GI50,"SF-295; Homo sapiens, SF-295, five dose",1790 nM
same,TGI,"SF-295; SF-295, five dose",3.63 µM
same,TGI,"DU-145; DU-145, five dose",3.20 µM
same,GI50,"DU-145; Homo sapiens, DU-145, five dose",1810 nM
same,CC50,"DU-145; Homo sapiens, DU-145, five dose, read-out: LC50 (the source's name)",5.66 µM
same,Growth percent DU-145,DU-145; [8],−96.35%
same,GI50,LOX IMVI; Homo sapiens,1680 nM
same,LC50,LOX IMVI; Homo sapiens,5.96 µM
same,TGI,LOX IMVI,3.16 µM
same,Growth percent KM12,KM12; [3],−85.99%
same,GI50,"KM12; Homo sapiens, KM12, five dose",1670 nM
same,LC50,"KM12; Homo sapiens, KM12, five dose",5.79 µM
same,TGI,"KM12; KM12, five dose",3.11 µM
same,GI50,"OVCAR-8; Homo sapiens, OVCAR-8, five dose",1890 nM
same,TGI,"OVCAR-8; OVCAR-8, five dose",4.12 µM
same,Growth percent OVCAR-8,OVCAR-8; [11],−74.59%
same,TGI,"A549/ATCC; A549/ATCC, five dose",3.50 µM
same,GI50,A549/ATCC; [12],1830 nM
same,LC50,A549/ATCC; [12],6.68 µM
same,Growth percent A549/ATCC,A549/ATCC; [2],−88.76%
same,Growth percent MDA-MB-231/ATCC,MDA-MB-231/ATCC; [5],−84.52%
same,GI50,"MDA-MB-231/ATCC; Homo sapiens, MDA-MB-231/ATCC, five dose",1310 nM
same,CC50,"MDA-MB-231/ATCC; Homo sapiens, MDA-MB-231/ATCC, five dose, read-out: LC50 (the source's name)",5.35 µM
same,TGI,"MDA-MB-231/ATCC; MDA-MB-231/ATCC, five dose",2.65 µM
same,Growth percent HS 578T,HS 578T; [5],50.82%
same,TGI,"HS 578T; HS 578T, five dose",3.90 µM
same,GI50,"HS 578T; Homo sapiens, HS 578T, five dose",1690 nM
same,GI50,"UO-31; Homo sapiens, UO-31, five dose",1290 nM
same,CC50,"UO-31; Homo sapiens, UO-31, five dose, read-out: LC50 (the source's name)",5.96 µM
same,Growth percent UO-31,UO-31; [1],−92.77%
same,TGI,"UO-31; UO-31, five dose",2.78 µM
same,GI50,NCI-H522; [13],1860 nM
same,LC50 (concentration causing 50% net cell kill),NCI-H522; [13],6.92 µM
same,TGI,"NCI-H522; NCI-H522, five dose",3.59 µM
same,Growth percent NCI-H522,NCI-H522; [2],−66.59%
same,Growth percent MCF7 (Table 2: MCF),MCF7; [5],−98.38%
same,GI50,"MCF7; Homo sapiens, MCF7, five dose",1280 nM
same,TGI,"MCF7; MCF7, five dose",2.81 µM
same,GI50,SK-MEL-5; [14],1510 nM
same,LC50,SK-MEL-5; [14],5.44 µM
same,Growth percent SK-MEL-5,"SK-MEL-5; Melanoma, 10^−5 molar, 48 hours, SRB",68.64%
same,TGI,"SK-MEL-5; SK-MEL-5, five dose",2.87 µM
same,GI50,"SK-OV-3; Homo sapiens, SK-OV-3, five dose",1780 nM
same,CC50,"SK-OV-3; Homo sapiens, SK-OV-3, five dose, read-out: LC50 (the source's name)",6.42 µM
same,Growth percent SK-OV-3,SK-OV-3; [11],12.25%
same,TGI,"SK-OV-3; SK-OV-3, five dose",3.38 µM
same,Growth percent HCT-15,HCT-15; [3],−45.92%
same,TGI,"HCT-15; HCT-15, five dose",3.12 µM
same,GI50,HCT-15; [15],1580 nM
same,LC50,HCT-15; [15],6.16 µM
same,Growth percent HCT-116,HCT-116; [3],−48.19%
same,TGI,"HCT-116; HCT-116, five dose",2.99 µM
same,GI50,HCT-116; [16],1630 nM
same,LC50 (concentration killing 50% of cells),HCT-116; [16],5.47 µM
same,Growth percent SW-620,SW-620; [3],−66.88%
same,GI50,SW-620; [17],1670 nM
same,LC50,SW-620; [17],7.02 µM
same,TGI,"SW-620; SW-620, five dose",3.42 µM
same,TGI,"HOP-62; HOP-62, five dose",2.92 µM
same,GI50,"HOP-62; Homo sapiens, HOP-62, five dose",1470 nM
same,Growth percent HOP-62,HOP-62; [2],−97.40%
same,GI50,NCI-H460; [18],1690 nM
same,LC50,NCI-H460; [18],7.05 µM
same,TGI,"NCI-H460; NCI-H460, five dose",3.45 µM
same,Growth percent NCI-H460,NCI-H460; [2],−62.39%
same,TGI,"COLO 205; COLO 205, five dose",3.57 µM
same,Growth percent COLO 205,COLO 205; [3],−87.22%
same,GI50,"COLO 205; Homo sapiens, COLO 205, five dose",1730 nM
same,GI50,"SN12C; Homo sapiens, SN12C, five dose",1450 nM
same,Growth percent SN12C,SN12C; [1],−93.98%
same,TGI,"SN12C; SN12C, five dose",3.02 µM
same,GI50,"60 cancer cell lines; 60 cell, mean over panel, five dose",1660 nM
same,CC50,"60 cancer cell lines; 60 cell, mean over panel, five dose, read-out: LC50, Mean",7.94 µM
same,"Growth percent, Delta","60 cancer cell lines; delta over the cell panel, 10^−5 molar, 48 hours, SRB",46.49%
same,"TGI, Mean","60 cancer cell lines; mean over panel, five dose",3.39 µM
same,"Growth percent, Mean","60 cancer cell lines; mean over the cell panel, 10^−5 molar, 48 hours, SRB",−51.89%
same,"Growth percent, Range","60 cancer cell lines; range over the cell panel, 10^−5 molar, 48 hours, SRB",176.87%
